According to publication PMC12218921, “An adaptive peptide-binding site in ubiquitin receptor hRpn13 revealed by structural studies” (Nature Communications, 2025):

Key:
hRpn13 Pru = test: 1H-15N HSQC NMR, DTT versus TCEP in buffer; assay type: binding, human; conditions: 1 mM DTT or TCEP, 15N-hRpn13 Pru, 25 °C, 850 MHz
Source text: Although DTT is trapped bound to C88 in the crystal, we expected that its interaction with hRpn13 in solution is likely to be transient and dynamic. Nonetheless, we tested whether NMR spectroscopy could detect differences between hRpn13 Pru dissolved in buffer containing DTT versus TCEP. We used previously obtained NMR resonance assignments[13] and 2D ^1H-^15N HSQC experiments to detect the hRpn13 amide signals, which are sensitive to changes in their chemical environment, for ^15N-labeled hRpn13 Pru with either 1 mM DTT or TCEP present in the buffer. […] C60 and C80 by contrast show no spectral perturbations (Supplementary Fig. 8a).
All ^1H-^15N HSQC experiments were acquired on samples dissolved in NMR buffer (20 mM sodium phosphate, pH 6.5, 50 mM NaCl, 1 mM TCEP, 10% D2O) unless specified, in which case 2 mM DTT replaced TCEP. The samples were purified in DTT-containing buffer and then exchanged into NMR buffer by using Zeba Protein Desalting columns (Thermo Fisher Scientific). The pH was measured and adjusted to 6.5. […] The data were processed by NMRpipe[46] (version 11.5) and spectra visualized and analyzed with NMR-FAM-SPARKY[47] (version 3.190) by using previous chemical shift assignments[12],[23] and NMRbox[48]. The amide nitrogen and hydrogen chemical shift perturbations (CSP) were mapped for each amino acid according to Eq. 1.1 CSP=0.2ΔδN2+ΔδH2 […]

[1] = system: hRpn13 F76 arginine substitution; conditions: cited from earlier work

Molecule | HSQC signal shifting, DTT versus TCEP (hRpn13 Pru) | hRpn13 binding to ubiquitin on arginine substitution of F76 [1]
O[C@@H](CS)[C@@H](O)CS (racemic) [DTT, dithiothreitol] | slight signal shifting, including for C88 | –
ubiquitin | – | abolishes hRpn13 binding to ubiquitin
